{"source": "PubChem BioAssay (NCI)", "experiment_in_all_cases": "NCI anticancer screen, dose series, 48 h", "key": {"786-0 renal": {"tested_on": "786-0 renal"}, "A549 NSCLC": {"tested_on": "A549 NSCLC"}, "ACHN renal": {"tested_on": "ACHN renal"}, "CCRF-CEM leukemia": {"tested_on": "CCRF-CEM leukemia"}, "COLO 205 colon": {"tested_on": "COLO 205 colon"}, "DLD-1 colon": {"tested_on": "DLD-1 colon"}, "DMS 114 small cell lung": {"tested_on": "DMS 114 small cell lung"}, "DMS 273 small cell lung": {"tested_on": "DMS 273 small cell lung"}, "EKVX NSCLC": {"tested_on": "EKVX NSCLC"}, "HCC-2998 colon": {"tested_on": "HCC-2998 colon"}, "HCT-116 colon": {"tested_on": "HCT-116 colon"}, "HCT-15 colon": {"tested_on": "HCT-15 colon"}, "HL-60(TB) leukemia": {"tested_on": "HL-60(TB) leukemia"}, "HOP-62 NSCLC": {"tested_on": "HOP-62 NSCLC"}, "HOP-92 NSCLC": {"tested_on": "HOP-92 NSCLC"}, "HT29 colon": {"tested_on": "HT29 colon"}, "IGROV1 ovarian": {"tested_on": "IGROV1 ovarian"}, "K-562 leukemia": {"tested_on": "K-562 leukemia"}, "KM12 colon": {"tested_on": "KM12 colon"}, "KM20L2 colon": {"tested_on": "KM20L2 colon"}, "LOX IMVI melanoma": {"tested_on": "LOX IMVI melanoma"}, "LXFL 529 NSCLC": {"tested_on": "LXFL 529 NSCLC"}, "M14 melanoma": {"tested_on": "M14 melanoma"}, "M19-MEL melanoma": {"tested_on": "M19-MEL melanoma"}, "MALME-3M melanoma": {"tested_on": "MALME-3M melanoma"}, "MOLT-4 leukemia": {"tested_on": "MOLT-4 leukemia"}, "NCI-H226 lung": {"tested_on": "NCI-H226 lung"}, "NCI-H23 lung": {"tested_on": "NCI-H23 lung"}, "NCI-H460 lung": {"tested_on": "NCI-H460 lung"}, "NCI-H522 lung": {"tested_on": "NCI-H522 lung"}, "OVCAR-3 ovarian": {"tested_on": "OVCAR-3 ovarian"}, "OVCAR-4 ovarian": {"tested_on": "OVCAR-4 ovarian"}, "OVCAR-8 ovarian": {"tested_on": "OVCAR-8 ovarian"}, "RPMI-8226 leukemia": {"tested_on": "RPMI-8226 leukemia"}, "RXF 393 renal": {"tested_on": "RXF 393 renal"}, "SF-268 CNS": {"tested_on": "SF-268 CNS"}, "SF-295 CNS": {"tested_on": "SF-295 CNS"}, "SK-MEL-2 melanoma": {"tested_on": "SK-MEL-2 melanoma"}, "SK-MEL-28 melanoma": {"tested_on": "SK-MEL-28 melanoma"}, "SK-MEL-5 melanoma": {"tested_on": "SK-MEL-5 melanoma"}, "SK-OV-3 ovarian": {"tested_on": "SK-OV-3 ovarian"}, "SN12C renal": {"tested_on": "SN12C renal"}, "SNB-19 CNS": {"tested_on": "SNB-19 CNS"}, "SNB-75 CNS": {"tested_on": "SNB-75 CNS"}, "SNB-78 CNS": {"tested_on": "SNB-78 CNS"}, "SR leukemia": {"tested_on": "SR leukemia"}, "SW-620 colon": {"tested_on": "SW-620 colon"}, "TK-10 renal": {"tested_on": "TK-10 renal"}, "U251 CNS": {"tested_on": "U251 CNS"}, "UACC-257 melanoma": {"tested_on": "UACC-257 melanoma"}, "UACC-62 melanoma": {"tested_on": "UACC-62 melanoma"}, "UO-31 renal": {"tested_on": "UO-31 renal"}, "XF 498 CNS": {"tested_on": "XF 498 CNS"}}, "note": "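Cells were grown in 96-well plates and exposed to each compound for 48 hours at five concentrations; endpoints were interpolated linearly between bracketing concentrations, or set to the highest concentration if not reached. TGI is the concentration that stops growth completely.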", "data": [{"compound": "O=C(CCN1CCCC1)CC(c1ccccc1)c1c(O)c2ccccc2oc1=O", "note": "(stereo not drawn)", "values": [{"measurement": "TGI", "setting": "786-0 renal", "value": "> 100", "unit": "µM"}, {"measurement": "TGI", "setting": "A549 NSCLC", "value": "> 100", "unit": "µM"}, {"measurement": "TGI", "setting": "ACHN renal", "value": "> 100", "unit": "µM"}, {"measurement": "TGI", "setting": "CCRF-CEM leukemia", "value": "> 100", "unit": "µM"}, {"measurement": "TGI", "setting": "COLO 205 colon", "value": "> 100", "unit": "µM"}, {"measurement": "TGI", "setting": "DLD-1 colon", "value": "> 100", "unit": "µM"}, {"measurement": "TGI", "setting": "DMS 114 small cell lung", "value": "> 100", "unit": "µM"}, {"measurement": "TGI", "setting": "DMS 273 small cell lung", "value": "> 100", "unit": "µM"}, {"measurement": "TGI", "setting": "EKVX NSCLC", "value": "> 100", "unit": "µM"}, {"measurement": "TGI", "setting": "HCC-2998 colon", "value": "> 100", "unit": "µM"}, {"measurement": "TGI", "setting": "HCT-116 colon", "value": "> 100", "unit": "µM"}, {"measurement": "TGI", "setting": "HCT-15 colon", "value": "> 100", "unit": "µM"}, {"measurement": "TGI", "setting": "HL-60(TB) leukemia", "value": "> 100", "unit": "µM"}, {"measurement": "TGI", "setting": "HOP-62 NSCLC", "value": "> 100", "unit": "µM"}, {"measurement": "TGI", "setting": "HOP-92 NSCLC", "value": 94.8, "unit": "µM"}, {"measurement": "TGI", "setting": "HT29 colon", "value": "> 100", "unit": "µM"}, {"measurement": "TGI", "setting": "IGROV1 ovarian", "value": "> 100", "unit": "µM"}, {"measurement": "TGI", "setting": "K-562 leukemia", "value": "> 100", "unit": "µM"}, {"measurement": "TGI", "setting": "KM12 colon", "value": "> 100", "unit": "µM"}, {"measurement": "TGI", "setting": "KM20L2 colon", "value": "> 100", "unit": "µM"}, {"measurement": "TGI", "setting": "LOX IMVI melanoma", "value": "> 100", "unit": "µM"}, {"measurement": "TGI", "setting": "LXFL 529 NSCLC", "value": "> 100", "unit": "µM"}, {"measurement": "TGI", "setting": "M14 melanoma", "value": "> 100", "unit": "µM"}, {"measurement": "TGI", "setting": "M19-MEL melanoma", "value": "> 100", "unit": "µM"}, {"measurement": "TGI", "setting": "MALME-3M melanoma", "value": "> 100", "unit": "µM"}, {"measurement": "TGI", "setting": "MOLT-4 leukemia", "value": "> 100", "unit": "µM"}, {"measurement": "TGI", "setting": "NCI-H226 lung", "value": "> 100", "unit": "µM"}, {"measurement": "TGI", "setting": "NCI-H23 lung", "value": "> 100", "unit": "µM"}, {"measurement": "TGI", "setting": "NCI-H460 lung", "value": "> 100", "unit": "µM"}, {"measurement": "TGI", "setting": "NCI-H522 lung", "value": "> 100", "unit": "µM"}, {"measurement": "TGI", "setting": "OVCAR-3 ovarian", "value": "> 100", "unit": "µM"}, {"measurement": "TGI", "setting": "OVCAR-4 ovarian", "value": "> 100", "unit": "µM"}, {"measurement": "TGI", "setting": "OVCAR-8 ovarian", "value": "> 100", "unit": "µM"}, {"measurement": "TGI", "setting": "RPMI-8226 leukemia", "value": "> 100", "unit": "µM"}, {"measurement": "TGI", "setting": "RXF 393 renal", "value": "> 100", "unit": "µM"}, {"measurement": "TGI", "setting": "SF-268 CNS", "value": "> 100", "unit": "µM"}, {"measurement": "TGI", "setting": "SF-295 CNS", "value": "> 100", "unit": "µM"}, {"measurement": "TGI", "setting": "SK-MEL-2 melanoma", "value": "> 100", "unit": "µM"}, {"measurement": "TGI", "setting": "SK-MEL-28 melanoma", "value": "> 100", "unit": "µM"}, {"measurement": "TGI", "setting": "SK-MEL-5 melanoma", "value": "> 100", "unit": "µM"}, {"measurement": "TGI", "setting": "SK-OV-3 ovarian", "value": "> 100", "unit": "µM"}, {"measurement": "TGI", "setting": "SN12C renal", "value": "> 100", "unit": "µM"}, {"measurement": "TGI", "setting": "SNB-19 CNS", "value": "> 100", "unit": "µM"}, {"measurement": "TGI", "setting": "SNB-75 CNS", "value": "> 100", "unit": "µM"}, {"measurement": "TGI", "setting": "SNB-78 CNS", "value": "> 100", "unit": "µM"}, {"measurement": "TGI", "setting": "SR leukemia", "value": "> 100", "unit": "µM"}, {"measurement": "TGI", "setting": "SW-620 colon", "value": "> 100", "unit": "µM"}, {"measurement": "TGI", "setting": "TK-10 renal", "value": "> 100", "unit": "µM"}, {"measurement": "TGI", "setting": "U251 CNS", "value": "> 100", "unit": "µM"}, {"measurement": "TGI", "setting": "UACC-257 melanoma", "value": "> 100", "unit": "µM"}, {"measurement": "TGI", "setting": "UACC-62 melanoma", "value": "> 100", "unit": "µM"}, {"measurement": "TGI", "setting": "UO-31 renal", "value": "> 100", "unit": "µM"}, {"measurement": "TGI", "setting": "XF 498 CNS", "value": "> 100", "unit": "µM"}]}]}
